The values below come from US20050148631A1, “Amino heterocyclyl inhibitors of 11-beta-hydroxy steroid dehydrogenase type 1” (AGOURON PHARMACEUTICALS, INC., priority 2003, published 2005).

Test [1] addresses T1, 11β-hsd-1 enzyme (Homo sapiens, UniProt P28845). Kind of test: 11β-hsd-1 enzyme assay, Kiapp determination (3H-cortisone to cortisol, radio-HPLC). Type of test: biochemical. Conditions: read-out: Ki app.
Test [2] has as its target T1, 11β-hsd-1 enzyme. Briefly: 11β-hsd-1 enzyme assay, percentage of inhibition (3H-cortisone to cortisol, radio-HPLC). Conditions: read-out: % inh @ 0.1 uM. Type of test: biochemical.

Molecules are shown by their SMILES. Like-named read-outs stand apart in the source and are kept apart here. Some results are limits rather than exact numbers.

T1 sequence (P28845 whole entry, species assumed): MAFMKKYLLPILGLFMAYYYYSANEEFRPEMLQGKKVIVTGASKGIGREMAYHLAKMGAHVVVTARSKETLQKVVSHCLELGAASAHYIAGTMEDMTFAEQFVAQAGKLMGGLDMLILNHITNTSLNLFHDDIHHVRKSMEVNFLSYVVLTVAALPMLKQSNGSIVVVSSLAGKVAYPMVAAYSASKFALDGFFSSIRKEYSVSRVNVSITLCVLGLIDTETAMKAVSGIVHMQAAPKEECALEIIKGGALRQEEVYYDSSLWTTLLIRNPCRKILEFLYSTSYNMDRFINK

As to `Cc1cccc(NS(=O)(=O)c2ccc3c(Cl)cccc3c2)n1` [Example 102], the Ki in test [1] is less than 1 nM. The inhibition at 0.1 µM in test [2] (0.1 uM) came out at 100%.
On the same counts, the results for `Cc1cccc(NS(=O)(=O)c2sc3ccc(F)cc3c2C)n1` [Example 103] are less than 1 nM and 100%.
The like results for `CCc1cccc(NS(=O)(=O)c2sc(-c3ccccc3)nc2C)n1` [Example 104] were, in that order, 23 nM and 89.6%.
Regarding `Cc1c(S(=O)(=O)Nc2cccc(N)n2)sc2ccc(Cl)cc12` [Example 107], the Ki in test [1] was less than 1 nM. The inhibition at 0.1 µM in test [2] (0.1 uM) came to 100%.
On to `Cc1cccc(NS(=O)(=O)/C=C/c2ccccc2)n1` [Example 109], for which, in test [1], the Ki came to 270 nM. Besides, the inhibition at 0.1 µM in test [2] (0.1 uM) is 57.2%.
Consider `N#Cc1ccc(-c2ccc(S(=O)(=O)Nc3cccc(C4CC4)n3)cc2)cc1` [Example 112, 4′-Cyano-biphenyl-4-sulfonic acid (6-cyclopropyl-pyridin-2-yl)-amide], for which, in test [1], the Ki worked out at 1.9 nM. In addition, in test [2] (0.1 uM), the inhibition at 0.1 µM is 100%.
`Cc1c(S(=O)(=O)Nc2cccc(CCO)n2)sc2ccc(Cl)cc12` [Example 115, 5-Chloro-3-methyl-benzo[b]thiophene-2-sulfonic acid [6-(2-hydroxy-ethyl)-pyridin-2-yl]-amide]: the Ki in test [1] was 4.8 nM. Besides, the inhibition at 0.1 µM in test [2] (0.1 uM) is 93.6%.
On to `N#Cc1ccc(-c2ccc(S(=O)(=O)Nc3cccc(CCO)n3)cc2)cc1` [Example 117], for which the Ki in test [1] came to 26.2 nM. In addition, in test [2] (0.1 uM), the inhibition at 0.1 µM was found to be 84.8%.
`Cc1cccc(NS(=O)(=O)c2sc(-c3ccc(C#N)cc3)nc2C)n1` [Example 118, 2-(4-Cyano-phenyl)-4-methyl-thiazole-5-sulfonic acid (6-methyl-pyridin-2-yl)-amide]: the Ki in test [1] amounted to 2.5 nM. Also, in test [2] (0.1 uM), the inhibition at 0.1 µM amounted to 100%.
On the same counts, the results for `CCc1cccc(NS(=O)(=O)c2sc(-c3ccc(C#N)cc3)nc2C)n1` [Example 119] are 3.1 nM and 95%.
On the same counts, the results for `Cc1cccc(NS(=O)(=O)c2ccc(-c3ccc(F)cc3)cc2)n1` [Example 128] are 19.7 nM and 86.8%.
Take `Cc1cccc(NS(=O)(=O)c2ccc(-c3cccc(F)c3)cc2)n1` [Example 133]: the Ki in test [1] is 24.7 nM. For the same molecule, in test [2] (0.1 uM), the inhibition at 0.1 µM was 84.8%.
Turning to `COc1cccc(-c2ccc(S(=O)(=O)Nc3cccc(C)n3)cc2)c1` [Example 160], the Ki in test [1] worked out at 36.2 nM. The inhibition at 0.1 µM in test [2] (0.1 uM) is 66.8%.
For the molecule `COc1ccc(-c2ccc(S(=O)(=O)Nc3cccc(C)n3)cc2)cc1` [Example 161], the Ki in test [1] worked out at 22.5 nM. For the same molecule, the inhibition at 0.1 µM in test [2] (0.1 uM) was 90.3%.
The like results for `COc1cccc(-c2ccc(S(=O)(=O)Nc3cccc(C)n3)c(C)c2)c1` [Example 162] were, in that order, 21 nM and 89%.
On the same counts, the results for `Cc1cccc(NS(=O)(=O)c2ccc(-c3cccc(Cl)c3)cc2C)n1` [Example 163] are 8 nM and 97%.
On the same counts, the results for `Cc1cccc(NS(=O)(=O)c2ccc(-c3ccccc3Cl)cc2C)n1` [Example 164] are 13 nM and 93%.
`CCOc1cccc(-c2ccc(S(=O)(=O)Nc3cccc(C)n3)c(C)c2)c1` [Example 165]: the Ki in test [1] worked out at 43 nM. In test [2] (0.1 uM), the inhibition at 0.1 µM turned out to be 71%.
On to `Cc1cccc(NS(=O)(=O)c2ccc(-c3ccccc3)cc2C)n1` [Example 166], for which, in test [1], the Ki stood at 12 nM. In addition, the inhibition at 0.1 µM in test [2] (0.1 uM) came out at 95%.
Consider `Cc1cccc(NS(=O)(=O)c2ccc(-c3ccc(Cl)cc3Cl)cc2C)n1` [Example 167], for which the Ki in test [1] came to 36 nM. Besides, the inhibition at 0.1 µM in test [2] (0.1 uM) came to 100%.
The like results for `Cc1cccc(NS(=O)(=O)c2ccc(-c3ccc(Cl)cc3)cc2C)n1` [Example 168] were, in that order, 2.8 nM and 96%.
The like results for `COc1ccc(-c2ccc(S(=O)(=O)Nc3cccc(C)n3)c(C)c2)cc1` [Example 169] were, in that order, 19 nM and 93%.
On the same counts, the results for `Cc1cccc(NS(=O)(=O)c2ccc(-c3ccc(F)c(Cl)c3)cc2C)n1` [Example 170] are 8.1 nM and 93%.
Turning to `Cc1ccc(-c2ccc(S(=O)(=O)Nc3cccc(C)n3)c(C)c2)cc1` [Example 171], in test [1], the Ki turned out to be 6.9 nM. The inhibition at 0.1 µM in test [2] (0.1 uM) amounted to 93%.
The like results for `Cc1cccc(NS(=O)(=O)c2ccc(-c3ccccc3C)cc2C)n1` [Example 172] were, in that order, 48 nM and 82%.
On the same counts, the results for `Cc1cccc(NS(=O)(=O)c2ccc(-c3cccc(F)c3)cc2C)n1` [Example 173] are 9.6 nM and 97%.
For the molecule `Cc1cccc(NS(=O)(=O)c2ccc(-c3cc(Cl)cc(Cl)c3)cc2C)n1` [Example 174], the Ki in test [1] is 3.2 nM. The inhibition at 0.1 µM in test [2] (0.1 uM) came out at 98%.
On the same counts, the results for `Cc1cccc(NS(=O)(=O)c2ccc(-c3ccc(Cl)c(Cl)c3)cc2C)n1` [Example 176] are 5.2 nM and 100%.
On the same counts, the results for `Cc1cccc(NS(=O)(=O)c2ccc(-c3cccc(C#N)c3)cc2C)n1` [Example 177] are 20 nM and 85%.
Turning to `Cc1cccc(NS(=O)(=O)c2ccc(-c3cc(F)cc(F)c3)cc2C)n1` [Example 178], in test [1], the Ki is 8.2 nM. Moreover, in test [2] (0.1 uM), the inhibition at 0.1 µM came out at 95%.
Consider `Cc1cccc(NS(=O)(=O)c2ccc(-c3ccc(F)cc3F)cc2C)n1` [Example 179], for which, in test [1], the Ki amounted to 6.2 nM. The inhibition at 0.1 µM in test [2] (0.1 uM) was determined as 95%.
On the same counts, the results for `Cc1cccc(NS(=O)(=O)c2ccc(-c3ccc(CO)cc3)cc2C)n1` [Example 180] are 75 nM and 65%.
The like results for `Cc1cccc(NS(=O)(=O)c2ccc(-c3ccccc3O)cc2C)n1` [Example 181] were, in that order, 53 nM and 83%.
`COc1ccc(-c2ccc(S(=O)(=O)Nc3cccc(C)n3)c(C)c2)cc1OC` [Example 182]: the Ki in test [1] came to 23 nM. The inhibition at 0.1 µM in test [2] (0.1 uM) turned out to be 79%.
Turning to `Cc1cccc(NS(=O)(=O)c2ccc(-c3ccc(F)c(C)c3)cc2C)n1` [Example 183], the Ki in test [1] was determined as 14 nM. In addition, in test [2] (0.1 uM), the inhibition at 0.1 µM is 91%.
On the same counts, the results for `Cc1cccc(NS(=O)(=O)c2ccc(-c3cc(F)c(F)c(F)c3)cc2C)n1` [Example 184] are 12 nM and 97%.
Turning to `Cc1cccc(NS(=O)(=O)c2ccc(-c3cccc(O)c3)cc2C)n1` [Example 185], the Ki in test [1] amounted to 46 nM. The inhibition at 0.1 µM in test [2] (0.1 uM) turned out to be 71%.
With `Cc1cccc(NS(=O)(=O)c2ccc(-c3ccccc3F)cc2C)n1` [Example 186], in test [1], the Ki is 9.3 nM. For the same molecule, in test [2] (0.1 uM), the inhibition at 0.1 µM worked out at 95%.
In the case of `COc1ccc(-c2ccc(S(=O)(=O)Nc3cccc(C)n3)c(C)c2)cc1F` [Example 187], in test [1], the Ki turned out to be 9.5 nM. In test [2] (0.1 uM), the inhibition at 0.1 µM came to 93%.
Regarding `Cc1cccc(NS(=O)(=O)c2ccc(-c3ccc(C(C)C)cc3)cc2C)n1` [Example 190], in test [1], the Ki is 35 nM. Besides, the inhibition at 0.1 µM in test [2] (0.1 uM) came to 78%.
Regarding `CCc1ccc(-c2ccc(S(=O)(=O)Nc3cccc(C)n3)c(C)c2)cc1` [Example 191], in test [1], the Ki is 11 nM. Further, the inhibition at 0.1 µM in test [2] (0.1 uM) was determined as 100%.
Regarding `CCOc1ccc(-c2ccc(S(=O)(=O)Nc3cccc(C)n3)c(C)c2)cc1` [Example 192], in test [1], the Ki came to 15 nM. Moreover, the inhibition at 0.1 µM in test [2] (0.1 uM) is 81%.
On the same counts, the results for `Cc1cccc(NS(=O)(=O)c2ccc(-c3cccc(C(C)C)c3)cc2C)n1` [Example 193] are 39 nM and 78%.
Turning to `Cc1cccc(NS(=O)(=O)c2ccc(-c3ccccc3C#N)cc2C)n1` [Example 195], the Ki in test [1] was found to be 17 nM. For the same molecule, the inhibition at 0.1 µM in test [2] (0.1 uM) came to 82%.
Consider `Cc1cccc(NS(=O)(=O)c2ccc(-c3cccc(Cl)c3Cl)cc2C)n1` [Example 196], for which the Ki in test [1] is 7.1 nM. In test [2] (0.1 uM), the inhibition at 0.1 µM was 90%.
As for `Cc1cccc(NS(=O)(=O)c2ccc(-c3cccc(C)c3C)cc2C)n1` [Example 197], in test [1] (apparent Ki, 11β-hsd-1 enzyme), the Ki was found to be 29 nM. In addition, the inhibition at 0.1 µM in test [2] (compound at 0.1 uM) was found to be 89%.
The like results for `Cc1cccc(NS(=O)(=O)c2ccc(-c3cccc(F)c3F)cc2C)n1` [Example 198] were, in that order, 7.5 nM and 100%.
The like results for `Cc1cccc(NS(=O)(=O)c2ccc(-c3ccc(S(C)(=O)=O)cc3)cc2C)n1` [Example 200] were, in that order, 21 nM and 88%.
Take `CCc1ccccc1-c1ccc(S(=O)(=O)Nc2cccc(C)n2)c(C)c1` [Example 201]: the Ki in test [1] (apparent Ki, 11β-hsd-1 enzyme) worked out at 43 nM. In test [2] (compound at 0.1 uM), the inhibition at 0.1 µM came out at 75%.
On the same counts, the results for `Cc1cccc(NS(=O)(=O)c2ccc(-c3cc(F)ccc3F)cc2C)n1` [Example 202] are 14 nM and 88%.
The like results for `CCS(=O)(=O)c1ccc(-c2ccc(S(=O)(=O)Nc3cccc(C)n3)c(C)c2)cc1` [Example 203] were, in that order, 19 nM and 86%.
The like results for `Cc1cccc(NS(=O)(=O)c2ccc(-c3ccc(F)cc3C)cc2C)n1` [Example 204] were, in that order, 10 nM and 85%.
As to `COc1ccc(-c2ccc(S(=O)(=O)Nc3cccc(C)n3)c(C)c2)cc1C` [Example 205], in test [1] (apparent Ki, 11β-hsd-1 enzyme), the Ki turned out to be 19 nM. Further, the inhibition at 0.1 µM in test [2] (compound at 0.1 uM) was found to be 86%.
As for `Cc1cccc(NS(=O)(=O)c2ccc(-c3ccc4c(c3)OCCO4)cc2C)n1` [Example 206], the Ki in test [1] (apparent Ki, 11β-hsd-1 enzyme) was 20 nM. Moreover, the inhibition at 0.1 µM in test [2] (compound at 0.1 uM) was 87%.
For the molecule `Cc1cccc(NS(=O)(=O)c2ccc(-c3ccc(F)c(F)c3)cc2C)n1` [Example 208], the Ki in test [1] (apparent Ki, 11β-hsd-1 enzyme) is 6.7 nM. Besides, the inhibition at 0.1 µM in test [2] (compound at 0.1 uM) worked out at 95%.
The like results for `CCCCc1ccc(-c2ccc(S(=O)(=O)Nc3cccc(C)n3)c(C)c2)cc1` [Example 209] were, in that order, 18 nM and 88%.
